Experimental data published in article PMC10447463, “Data-mining unveils structure–property–activity correlation of viral infectivity enhancing self-assembling peptides” (Nature Communications, 2023).

How the values were obtained:
[1] = Turbidity, derived count rate of scattered light; assay type: physicochemical; settings: for Count Rate: derived count rate of scattered light (turbidity); for Log10 Count Rate: turbidity, derived count rate of scattered light, data of Figure 2D
[2] = Aggregate analysis by widefield fluorescence microscopy; assay type: physicochemical
Method: 4 µL of 1 mg/mL peptide fibrils solution is added to a 20 µL, 50 µM ThT–solution in PBS. The mixture is incubated for 15 min at RT to allow binding of ThT dye with β–sheet rich structures. For reference PBS (4 µL) was added instead of peptide fibril solution. The samples were placed in black UV Star® 384 microliter well–plates (Greiner bio–one). Fluorescence spectra were recorded on an Infinite® M1000 PRO microplate reader (Tecan) at λem = 488 nm upon excitation at λex = 440 nm with 10 nm bandwidths and multiple reads per well (3×3). Measurements were repeated in triplicates and averaged with standard deviation. A peptide fibril was considered as ThT-active if the fluorescence intensity was at least twice as strong compared to the control (PBS containing 10% DMSO). Zeta-Potential. For the determination of the surface charge of aggregated peptides zeta-potential measurements were conducted with a Zetasizer Nano ZS, Malvern Instruments. Unless stated otherwise the peptides were dissolved from DMSO (10 mg/mL) in PBS (pH 7.4) to concentration of 1 mg/mL and incubated for 1d at RT. Just before the measurement the 60 µL of the peptides were further diluted in 600 µL KCl (aq, 1 mM) in a 1 mL disposable folded capillary cells (DTS–1060, Zetasizer Nano series, Malvern). The zeta potential of the peptides was derived from the electrophoretic mobility based on the Smoluchowski formula. All measurements were averaged over two individually performed experiments and conducted in triplicates for each sample. Aggregate analysis. […] Furthermore, fluorescence microscopy was conducted by staining 1 µL preformed fibrils (1 mg/mL) with 9 µL ThT (50 µM). Brightfield microscopy was performed simultaneously to evaluate aggregation also for non ThT-active fibrils. The measurements were performed on a Leica DMi8 microscope with 10x air objective and equipped with a Leica MC170 HD camera with a filter setting λem = 527/30 nm upon excitation at λex = 480/40 nm) and processed with the Leica LASX software. To quantify size and number of microscopic aggregation of particles > 10 µm^2 at least 3 independently measured images were analyzed via the 3D object counter analysis tool of ImageJ, v 1.53f51. Sum–frequency generation. The SFG experiments were carried out with a femtosecond Ti: Sapphire amplified laser system (Spitfire Ace, Spectra–Physics, 800 nm, 40 fs, 1 kHz) with 5 W output power. We used 2 W to pump an optical parametric amplifier (TOPAS, light conversion) with a non–collinear difference frequency generation stage to generate broadband IR pulses. Another 1 W of the laser output passed through an etalon to generate narrowband visible pulses (10 cm^-1). The incident angles of the visible and IR beams were 36° and 41° with respect to the surface normal, respectively. The visible (13 µJ) and IR (5 µJ) pulses were overlapped spatially and temporally at the sample position. Subsequently, the generated SFG pulse was guided into a spectrograph (Acton SP 300i, Princeton Instruments), and detected with an EMCCD (Newton, Andor Technology). To avoid IR absorption of water vapor, we purged N2 for the measurement. All spectra were collected in the ssp (denoting s-, s- and p-polarized SFG, visible and IR, respectively) polarization combination. The spectra were normalized to the non–resonant signal taken from z–cut quartz after subtracting a background spectrum.
Table S8 Summary of aggregate analysis from widefield microscopy measurements (Figure S32). The Number of aggregated peptides, the median size area, average size area
and the cumulative total size area of all particles (> 10 µm2) in an area of 1330 µm × 1330 µm was determined via automated 3D object counting (ImageJ) in triplicate
measurements (Std. Dev.).
Aggregate Std. Dev. Std. Dev. Std. Dev. Std. Dev.
Sequence Abs. Inf. / Std. Dev. / Count Rate / Std. Dev. Number Aggregate Median Area Median Area Average Area Average Area Total Area/ Total Area/ […]

[3] = Fig S8 panels A, C, 3 fields of 1330 µm x 1330 µm
[4] = Fig S8 panels B, D, average aggregate area, 3 fields of 1330 µm x 1330 µm
[5] = Fig S8 panels B, D, median aggregate area, 3 fields of 1330 µm x 1330 µm
[6] = Fig S8 panels B, D, 3 fields of 1330 µm x 1330 µm
[7] = Fig S8 panels B, D, widefield fluorescence microscopy, 3 fields of 1330 µm x 1330 µm

Row | Substance | Count Rate [1] | Log10 Count Rate [1] | Avg Area in 3 *(1330 µm *1330 µm) ([2]; Fig S8 panels A, C) | Log 10 Number of aggregates in 3 * (1330 µm *1330 µm) ([2]; Fig S8 panels A, C) | Median Area in 3 * (1330 µm *1330 µm) ([2]; Fig S8 panels A, C) | log Avg Area in 3 * ( (1330 µm *1330 µm)) ([2]; Fig S8 panels A, C) | log Median Area in 3 * ( (1330 µm *1330 µm)) ([2]; Fig S8 panels A, C) | log Total Area of all particles in 3 * (1330 µm *1330 µm) ([2]; Fig S8 panels A, C) | Number of aggregates in 3 * (1330 µm *1330 µm) [2, 3] | Avg Area in 3 *(1330 µm *1330 µm) [2, 4] | Median Area in 3 * (1330 µm *1330 µm) [2, 5] | Total Area of all particles in 3 * (1330 µm *1330 µm) [2, 6] | Number of aggregates in 3 * (1330 µm *1330 µm) [2, 7]
1 | KLKQLL | 319.9 | 2.505 | – | – | – | – | – | – | – | – | – | – | –
2 | CKWKWQW [KB4] | – | – | 95.93 | 1.94 | 29.43 | 1.982 | 1.469 | 3.921 | 87 | 95.93 | 29.43 | 8346 | 87
3 | CKFKQFF [CK15] | – | – | 2578 | 0.7533 | 2243 | 3.411 | 3.351 | 4.165 | 5.667 | 2578 | 2243 | 14606.95267 | 5.667
4 | CKFKFQF [BL4] | – | – | 86.55 | 2.108 | 22.111 | 1.937 | 1.345 | 4.0456 | 128.3 | 86.55 | 22.111 | 11106.98933 | 128.3
5 | KIKIQIC [TM112 / CN11] | – | – | 23.45 | 1.912 | 12.96 | 1.37 | 1.1125 | 3.282 | 81.67 | 23.45 | 12.96 | 1915.068 | 81.67
6 | CSISIQI [TM141] | – | – | 112.5 | 2.091 | 18.872 | 2.051 | 1.276 | 4.142 | 123.3 | 112.5 | 18.872 | 13871.26567 | 123.3
7 | KFKFQFNMW | 610.2 | 2.785 | – | – | – | – | – | – | – | – | – | – | –
8 | KFKFQFNMWQ [JG4] | – | – | 599.2 | 1.806 | 25.773 | 2.778 | 1.411 | 4.584 | 64 | 599.2 | 25.773 | 38349.21133 | 64
